Measurements: US20060079566A1, “PDK-1/Akt signaling inhibitors” (priority 2003, published 2006)
pIC50: −log10 of the molar value. Entries after “also recorded” stand apart in the source; their conditions may differ. Like-named read-outs stand apart in the source and are kept apart here.

Experiments:
PC-3 cells [1] = assay: Cell viability analysis (MTT) in PC-3 cells; assay type: cell-based, human
Method: (§1) Cell Culture PC-3 (p53−/−) human androgen-nonresponsive prostate cancer cells were purchased from the American […] (Manassas, Va.). Cells were cultured in RPMI 1640 medium (Gibco, Grand Island, N.Y.) supplemented with 10% fetal bovine serum (FBS; Gibco) at 37° C. in a humidified incubator containing 5% CO2.
Cell viability analysis The effect of 4-[5-(4-methylphenyl)-3-(trifluoromethyl)-1H-pyrazol-1-yl]benzenesulfonamide and its derivatives on PC-3 cell viability was assessed by using the MTT {[3-(4,5-dimethylthiazol-2-yl)-2,5-diphenyl-2H-tetrazolium bromide]} assay in six replicates. Cells were grown in 10% FBS-supplemented RPMI 1640 medium in 96-well, flat bottomed plates for 24 h, and were exposed to various concentrations of compounds 1-36 dissolved in DMSO (final concentration ≦0.1%) in 1% serum-containing RPMI 1640 medium for different time intervals. Controls received DMSO vehicle at a concentration equal to that in drug-treated cells. The medium was removed, replaced by 200 μl of 0.5 mg/ml of MTT in 10% FBS-containing RPMI-1640 medium, and cells were incubated in the CO2 incubator at 37° C. for 2 h. Supernatants were removed from the wells, and the reduced MTT dye was solubilized in 200 μL/well DMSO. Absorbance at 570 nm was determined on a plate reader.

recombinant PDK-1 = target: T1, recombinant PDK-1 (Homo sapiens, UniProt O15530); assay: PDK-1 kinase activity (Upstate kit, SGK-coupled, cell-free); assay type: biochemical; conditions: ratio of IC50 values
T1 construct: purchased Upstate (Lake Placid, N.Y.)
T1 sequence (O15530 1-556): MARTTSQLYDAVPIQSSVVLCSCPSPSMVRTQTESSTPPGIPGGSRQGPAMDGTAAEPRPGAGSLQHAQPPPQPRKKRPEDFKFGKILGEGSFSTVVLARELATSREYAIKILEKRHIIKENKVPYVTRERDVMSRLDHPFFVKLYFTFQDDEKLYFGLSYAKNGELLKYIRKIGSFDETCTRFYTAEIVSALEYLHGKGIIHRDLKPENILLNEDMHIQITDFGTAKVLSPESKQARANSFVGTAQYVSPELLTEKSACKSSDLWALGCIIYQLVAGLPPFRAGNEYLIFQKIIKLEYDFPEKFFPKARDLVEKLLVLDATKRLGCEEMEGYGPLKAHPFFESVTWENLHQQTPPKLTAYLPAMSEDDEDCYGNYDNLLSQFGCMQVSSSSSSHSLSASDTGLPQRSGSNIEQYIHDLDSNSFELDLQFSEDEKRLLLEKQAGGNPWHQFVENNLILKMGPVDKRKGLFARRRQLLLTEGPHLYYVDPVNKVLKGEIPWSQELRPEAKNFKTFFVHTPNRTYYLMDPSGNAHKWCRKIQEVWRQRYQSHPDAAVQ

PC-3 cells [2] = assay: Cell proliferation (Coulter counter) in PC-3 cells; assay type: cell-based, human; conditions: 1 μM; 10% FBS-supplemented RPMI 1640 medium
Method: as §1
Cell proliferation PC-3 cells were seeded into six-well plates at 50,000 cells/well in 10% FBS-containing RPMI 1640 medium. Following a 24 h attachment period, cells were treated in triplicate with the indicated concentration of compounds 1-36 or DMSO vehicle in 10% FBS-containing RPMI-1640 medium. At different time intervals, cells were harvested by trypsinization, and numerated using a Coulter counter model Z1 D/T (Beckman Coulter, Fullerton, Calif.).

phospho-473Ser Akt = assay: Western blot of Akt and phospho-Akt in PC-3 cells; assay type: cell-based, human; conditions: 5 μM and above, 2 h
Method: Immunoblotting. The general procedure for the Western blot analysis of Akt and phospho-Akt is described as follows. Cells were washed in PBS, resuspended in SDS sample buffer sonicated by an ultrasonic sonicator for 5 sec, and boiled for 5 min. After brief centrifugation, equivalent protein concentrations from the soluble fractions were resolved in 10% SDS-polyacrylamide gels on a Minigel apparatus, and transferred to a nitrocellulose membrane using a semi-dry transfer cell. The transblotted membrane was washed three times with TBS containing 0.05% Tween 20 (TBST). After blocking with TBST containing 5% nonfat milk for 60 min., the membrane was incubated with the primary antibody at 1:1,000 dilution in TBST-5% low fat milk at 4° C. for 12 h, and was then washed three times with TBST. The membrane was probed with goat anti-rabbit IgG-HRP conjugates (1:1,000) for 1 h at room temperature, and was washed with TBST three times. The immunoblots were visualized by enhanced chemiluminescence.

Akt = assay: Immunoprecipitated Akt kinase assay from drug-treated PC-3 cells (intracellular Akt activation); assay type: cell-based, human; conditions: PC-3 cells treated 2 h, read-out: IC50 for inhibiting intracellular Akt activation
Method: Immunoprecipitated Akt kinase assay Akt immunoprecipitation was carried out according to a modified, published procedure. PC-3 cells were treated with DMSO vehicle or the test agents at the indicated concentrations for 2 h and then lysed at 4° C for 1 h in buffer A containing 50 mM Tris-HCl, pH 7.5, 1% Triton X-100, 1 mM EDTA, 1 mM EGTA, 50 mM sodium fluoride, 10 mM sodium β-glycerophosphate. 0.1% 2-mercaptoethanol, 0.1 mM phenylmethylsulfonyl fluoride, and 1 μg/mL each of aprotinin, pepstatin, and leupeptin. Cell lysates were centrifuged at 10,000 g for 5 min, and the supernatant was treated with anti-Akt at 4° C. for 60 min., followed by protein G-agarose beads for additional 60 min. The immunoprecipitate was used to analyze Akt kinase activity by using the Akt/SGK-specific peptide substrate RPRAATF as described above. Values represented the means of two independent determinations.

immunoprecipitated Akt = assay: Direct inhibition of immunoprecipitated Akt kinase activity; assay type: biochemical, human
LOX IMVI = assay: NCI DTP screen (SRB), Melanoma; assay type: cell-based; conditions: LOX IKVI
Method: (§2) Screening of compounds 70 and 71 against several cancer cell lines The human tumor cell lines of the cancer screening panel are grown in RPMI 1640 medium containing 5% fetal bovine serum and 2 mM L-glutamine. For a typical screening experiment, cells are inoculated into 96 well microtiter plates in 100 μL at plating densities ranging from 5,000 to 40,000 cells/well depending on the doubling time of individual cell lines. After cell inoculation, the microtiter plates are incubated at 37° C., 5% CO2, 95% air and 100% relative humidity for 24 h prior to addition of experimental drugs.
(§3) After 24 h, two plates of each cell line are fixed in situ with TCA, to represent a measurement of the cell population for each cell line at the time of drug addition (Tz). Experimental drugs are solubilized in dimethyl sulfoxide at 400-fold the desired final maximum test concentration and stored frozen prior to use. At the time of drug addition, an aliquot of frozen concentrate is thawed and diluted to twice the desired final maximum test concentration with complete medium containing 50 μg/ml gentamicin. Additional four, 10-fold or ½ log serial dilutions are made to provide a total of five drug concentrations plus control. Aliquots of 100 μl of these different drug dilutions are added to the appropriate microtiter wells already containing 100 μl of medium, resulting in the required final drug concentrations.
(§4) Following drug addition, the plates are incubated for an additional 48 h at 37° C., 5% CO2, 95% air, and 100% relative humidity. For adherent cells, the assay is terminated by the addition of cold TCA. Cells are fixed in situ by the gentle addition of 50 μl of cold 50% (w/v) TCA (final concentration, 10% TCA) and incubated for 60 minutes at 4° C. The supernatant is discarded, and the plates are washed five times with tap water and air dried. Sulforhodamine B (SRB) solution (100 μl) at 0.4% (w/v) in 1% acetic acid is added to each well, and plates are incubated for 10 minutes at room temperature. After staining, unbound dye is removed by washing five times with 1% acetic acid and the plates are air dried. Bound stain is subsequently solubilized with 10 mM trizma base, and the absorbance is read on an automated plate reader at a wavelength of 515 nm. For suspension cells, the methodology is the same except that the assay is terminated by fixing settled cells at the bottom of the wells by gently adding 50 μl of 80% TCA (final concentration, 16% TCA). Using the seven absorbance measurements [time zero, (Tz), control growth, (C), and test growth in the presence of drug at the five concentration levels (Ti)], the percentage growth is calculated at each of the drug concentrations levels. Percentage growth inhibition is calculated as: [(Ti−Tz)/(C−Tz)]×100 for concentrations for which Ti>/=Tz [(Ti−Tz)/Tz]×100 for concentrations for which Ti<Tz
(§5) Three dose response parameters are calculated for each experimental agent. […] The drug concentration resulting in total growth inhibition (TGI) is calculated from Ti=Tz. […] Values are calculated for each of these three parameters if the level of activity is reached; however, if the effect is not reached or is exceeded, the value for that parameter is expressed as greater or less than the maximum or minimum concentration tested.

MALNE-3M = assay: NCI DTP screen (SRB), Melanoma; assay type: cell-based; conditions: MALME-3M
RXP 393 = assay: NCI DTP screen (SRB), Renal Cancer; assay type: cell-based, human
Method: as §2, §3, §4, §5

UO-31 = assay: NCI DTP screen (SRB), Renal Cancer; assay type: cell-based, human; conditions: UD-31
Method: as §2, §3, §4, §5

[3] = system: sixty human tumor cell lines; assay: NCI DTP sixty cell line assay, means over the panel; assay type: cell-based
Method: as §2, §3, §4, §5

MCP7 = assay: NCI DTP screen (SRB), Breast Cancer; assay type: cell-based, human; conditions: MCF7
Method: as §2, §3, §4, §5

HS 57BT = assay: NCI DTP screen (SRB), Breast Cancer; assay type: cell-based; conditions: HS S78T
Method: as §2, §3, §4, §5

NCI-H322M = assay: NCI DTP screen (SRB), Non-Small Cell Lung Cancer; assay type: cell-based; conditions: NCI-H322H
Method: as §2, §3, §4, §5

[4] = in vivo
U251 = assay: NCI DTP screen (SRB), CNS Cancer; assay type: cell-based, human; conditions: Log10 Concentration −4.0
Method: Screening of compounds 70 and 71 against several cancer cell lines The human tumor cell lines of the cancer screening panel are grown in RPMI 1640 medium containing 5% fetal bovine serum and 2 mM L-glutamine. For a typical screening experiment, cells are inoculated into 96 well microtiter plates in 100 μL at plating densities ranging from 5,000 to 40,000 cells/well depending on the doubling time of individual cell lines. After cell inoculation, the microtiter plates are incubated at 37° C., 5% CO2, 95% air and 100% relative humidity for 24 h prior to addition of experimental drugs. […]
Following drug addition, the plates are incubated for an additional 48 h at 37° C., 5% CO2, 95% air, and 100% relative humidity. […] Bound stain is subsequently solubilized with 10 mM trizma base, and the absorbance is read on an automated plate reader at a wavelength of 515 nm. […] Using the seven absorbance measurements [time zero, (Tz), control growth, (C), and test growth in the presence of drug at the five concentration levels (Ti)], the percentage growth is calculated at each of the drug concentrations levels. Percentage growth inhibition is calculated as: [(Ti−Tz)/(C−Tz)]×100 for concentrations for which Ti>/=Tz [(Ti−Tz)/Tz]×100 for concentrations for which Ti<Tz
Three dose response parameters are calculated for each experimental agent. […]

[5] = Preliminary animal studies, daily oral administration; conditions: daily oral administration for one month; data not shown

Compound: 4-[5-(2-phenanthrenyl)-3-(trifluoromethyl)-1H-1-yl]benzenesulfonamide [Compound 59]
- pIC50 (PC-3 cells [1]; 24 h, 1% FBS-containing RPMI 1640 medium, read-out: dose required to induce 50% PC-3 cell death): 5.30
- pIC50 (PC-3 cells [1]; inducing apoptotic death in PC-3 cells / PC-3 cell viability, read-out: IC50 PC-3): 5.30
- improvement of IC50 values (PDK-1 and PC-3) over the comparative compound (recombinant PDK-1): five- to six-fold
- anti-proliferative activity on PC-3 cell proliferation (PC-3 cells [2]): substantial anti-proliferative activity
- Akt dephosphorylation (Western blot) (phospho-473Ser Akt): significant Akt dephosphorylation
- pIC50 (Akt): 5.30
- direct inhibitory effect on immunoprecipitated Akt kinase activity (immunoprecipitated Akt): Neither compound 59 nor other the other compounds displayed a direct inhibitory effect; also recorded: no appreciable direct inhibition

Compound: N=C(N)Nc1ccc(-n2nc(C(F)(F)F)cc2-c2ccc3c(ccc4ccccc43)c2)cc1 [Compound 71, 4-[5-(2-Phenanthrenyl)-3-(trifluoromethyl)-1H-pyrazol-1-yl]-phenyl-guanidine]
- increase in PDK-1 inhibition potency over compound 59 (recombinant PDK-1): five-fold
- Percent Growth (LOX IMVI; Log10 Concentration −4.0): −53%
- Percent Growth (LOX IMVI; Log10 Concentration −5.0): −98%
- Percent Growth (MALNE-3M; Log10 Concentration −4.0): −50%
- Percent Growth (MALNE-3M; Log10 Concentration −5.0): −87%
- Percent Growth (RXP 393; Log10 Concentration −4.0): −4%
- Percent Growth (RXP 393; Log10 Concentration −5.0): −61%
- Percent Growth (UO-31; Log10 Concentration −4.0): −35%
- Percent Growth (UO-31; Log10 Concentration −5.0): −100%
- range in which cell growth is completely suppressed in a diverse range of tumor cell lines [3]: 3 to 5 µM
- concentration at which many cell lines respond to the growth inhibitory effect ([3]; two-day exposure, 5% FBS-containing medium): ≥ 0.1 µM
- GI50 ([3]; two-day treatment, serum-containing medium, read-out: mean GI50 among the sixty cell lines): 1300 nM
- Percent Growth (MCP7; Log10 Concentration −4.0): −49%
- Percent Growth (MCP7; Log10 Concentration −5.0): −84%
- Percent Growth (HS 57BT; Log10 Concentration −4.0): −38%
- Percent Growth (HS 57BT; Log10 Concentration −5.0): −69%
- Percent Growth (NCI-H322M; Log10 Concentration −4.0): −59%
- Percent Growth (NCI-H322M; Log10 Concentration −5.0): −100%
- oral absorption [4]: can be orally absorbed
- average serum concentrations relative to TGI ([4]; po): average serum concentrations several-fold higher than TGI
- Percent Growth (U251): −12%
- direct inhibitory effect on immunoprecipitated Akt kinase activity (immunoprecipitated Akt): no appreciable direct inhibition
- toxicity to the animals [5]: little toxicity
